“And” between values parts separate entries of the source, which are not always exact repeats. Identical values can stand only once. Toxic doses and inconclusive results are not listed.
Tested on: L1210 leukemia ip in BDF1 mice, survival T/C
Test: NCI In Vivo Anticancer Drug Screen. Data for tumor model L1210 Leukemia (intraperitoneal) in B6D2F1 (BDF1) mice
Settings: endpoint: mean survival time, higher = longer survival
Outline: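 Mice bearing the transplanted tumor received compound or vehicle. Survival of the treated group was divided by that of the vehicle-treated control group to give the ratio.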

[1] = dose: 100.0 mg/kg/injection, schedule: Q01DX009 (ip), vehicle: saline
[2] = dose: 200.0 mg/kg/injection, schedule: Q01DX009 (ip), vehicle: saline
[3] = dose: 100.0 mg/kg/injection, schedule: Q04DX003 (ip), vehicle: Klucel (hydroxypropylcellulose) (HPC)
[4] = dose: 200.0 mg/kg/injection, schedule: Q04DX003 (ip), vehicle: Klucel (hydroxypropylcellulose) (HPC)
[5] = dose: 400.0 mg/kg/injection, schedule: Q04DX003 (ip), vehicle: Klucel (hydroxypropylcellulose) (HPC)
[6] = dose: 25.0 mg/kg/injection, schedule: Q01DX009 (ip), vehicle: saline
[7] = dose: 50.0 mg/kg/injection, schedule: Q01DX009 (ip), vehicle: saline
[8] = dose: 100.0 mg/kg/injection, schedule: Q04DX003 (ip), vehicle: saline with Tween-80
[9] = dose: 200.0 mg/kg/injection, schedule: Q04DX003 (ip), vehicle: saline with Tween-80
[10] = dose: 100.0 mg/kg/injection, schedule: Q01DX009 (ip), vehicle: Klucel (hydroxypropylcellulose) (HPC)
[11] = dose: 200.0 mg/kg/injection, schedule: Q01DX009 (ip), vehicle: Klucel (hydroxypropylcellulose) (HPC)
[12] = dose: 400.0 mg/kg/injection, schedule: Q01DX009 (ip), vehicle: Klucel (hydroxypropylcellulose) (HPC)

O=C(CC(C(=O)c1ccccc1)N1CCN(Cc2ccccc2)CC1)c1ccccc1 (configuration not stated)
T/C (dose: 50.0 mg/kg/injection, schedule: Q01DX001 (ip), vehicle: carboxymethylcellulose (CMC)): 92 % of control
T/C (dose: 100.0 mg/kg/injection, schedule: Q01DX001 (ip), vehicle: carboxymethylcellulose (CMC)): 94 % of control
T/C (dose: 200.0 mg/kg/injection, schedule: Q01DX001 (ip), vehicle: carboxymethylcellulose (CMC)): 92 % of control
T/C (dose: 400.0 mg/kg/injection, schedule: Q01DX001 (ip), vehicle: carboxymethylcellulose (CMC)): 97 % of control

Cc1c(C(C)(C(=O)O)c2c(C)n(C)c3ccccc23)c2ccccc2n1C
T/C (dose: 50.0 mg/kg/injection, schedule: Q01DX001 (ip), vehicle: other): 96 % of control
T/C (dose: 100.0 mg/kg/injection, schedule: Q01DX001 (ip), vehicle: other): 93 % of control
T/C (dose: 200.0 mg/kg/injection, schedule: Q01DX001 (ip), vehicle: other): 91 % of control
T/C (dose: 400.0 mg/kg/injection, schedule: Q01DX001 (ip), vehicle: other): 96 % of control

COc1cc(Cl)ccc1NC(=O)Oc1ccc(F)cc1
T/C [1]: 123 % of control
T/C [2]: 101 % of control
T/C (dose: 400.0 mg/kg/injection, schedule: Q01DX009 (ip), vehicle: saline): 115 % of control

Cc1cc(=O)[nH]n1-c1ccc(N)cc1
T/C [3]: 105 % of control
T/C [4]: 94 % of control
T/C [5]: 103 % of control

NC(CCC(=O)NC(CSC(c1ccccc1)(c1ccccc1)c1ccc(F)cc1)C(=O)NCC(=O)O)C(=O)O (configuration not stated)
T/C [6]: 124 % of control
T/C (dose: 50.0 mg/kg/injection, schedule: Q01DX009 (ip), vehicle: other): 116 % of control
T/C [7]: 118 % of control
T/C [2]: 152 % of control

c1ccc(CCSCCCSCCc2ccccn2)nc1
T/C (dose: 50.0 mg/kg/injection, schedule: Q04DX002 (ip), vehicle: saline): 98 % of control
T/C (dose: 100.0 mg/kg/injection, schedule: Q04DX002 (ip), vehicle: saline): 98 % of control
T/C (dose: 200.0 mg/kg/injection, schedule: Q04DX002 (ip), vehicle: saline): 92 % of control
T/C (dose: 400.0 mg/kg/injection, schedule: Q04DX002 (ip), vehicle: saline): 95 % of control

CCCCCCCCCCCC(=O)NC(=S)Nc1cc(OC)ccc1OC
T/C (dose: 100.0 mg/kg/injection, schedule: Q04DX002 (ip), vehicle: Klucel (hydroxypropylcellulose) (HPC)): 104 % of control
T/C (dose: 200.0 mg/kg/injection, schedule: Q04DX002 (ip), vehicle: Klucel (hydroxypropylcellulose) (HPC)): 111 % of control
T/C (dose: 400.0 mg/kg/injection, schedule: Q04DX002 (ip), vehicle: Klucel (hydroxypropylcellulose) (HPC)): 93 % of control

CCCCCCNC(C)=O
T/C (dose: 12.5 mg/kg/injection, schedule: Q01DX009 (ip), vehicle: saline): 92 % of control
T/C [6]: 118 % of control
T/C [7]: 97 % of control and 90 % of control
T/C [1]: 90 % of control
T/C [8]: 95 % of control
T/C [2]: 97 % of control
T/C [9]: 87 % of control

COc1ccc(-c2c(-c3ccccc3)c(=O)oc3ccc4ccccc4c23)cc1
T/C [3]: 97 % of control
T/C [4]: 100 % of control
T/C [5]: 97 % of control

N#Cc1ccc(Cl)cc1.N#Cc1ccc(Cl)cc1.[Cl][Pt][Cl]
T/C (dose: 6.25 mg/kg/injection, schedule: Q04DX003 (ip), vehicle: water): 109 % of control
T/C (dose: 12.5 mg/kg/injection, schedule: Q04DX003 (ip), vehicle: water): 105 % of control
T/C (dose: 25.0 mg/kg/injection, schedule: Q04DX003 (ip), vehicle: water): 107 % of control
T/C (dose: 50.0 mg/kg/injection, schedule: Q04DX003 (ip), vehicle: water): 109 % of control

Cc1cccc(Cl)c1NC(=S)Nc1cccc(C(F)(F)F)c1
T/C [10]: 102 % of control
T/C [11]: 102 % of control
T/C [12]: 96 % of control

c1ccc(N/N=C(\Sc2ccccc2)c2ccccc2)cc1
T/C [8]: 113 % of control
T/C [9]: 102 % of control
T/C (dose: 400.0 mg/kg/injection, schedule: Q04DX003 (ip), vehicle: saline with Tween-80): 94 % of control

O=[As](O)(O)c1ccccc1N=Nc1ccccc1
T/C (dose: 75.0 mg/kg/injection, schedule: Q01DX009 (ip), vehicle: Klucel (hydroxypropylcellulose) (HPC)): 100 % of control
T/C (dose: 150.0 mg/kg/injection, schedule: Q01DX009 (ip), vehicle: Klucel (hydroxypropylcellulose) (HPC)): 87 % of control
T/C (dose: 300.0 mg/kg/injection, schedule: Q01DX009 (ip), vehicle: Klucel (hydroxypropylcellulose) (HPC)): 108 % of control

O=S1(=O)CC(N2CCCCC2)C1
T/C (dose: 75.0 mg/kg/injection, schedule: Q01DX001 (ip), vehicle: saline): 103 % of control

COC(=O)C1CC(=O)C(C(=O)OC)CC1=O (configuration not stated)
T/C [10]: 89 % of control
T/C [11]: 92 % of control
T/C [12]: 89 % of control

Reference: PubChem BioAssay AID248 (DTP/NCI, 2004)
